From US8735426B2, “Vanilloid receptor ligands, pharmaceutical compositions containing them, process for making them and use thereof for treating pain and other conditions” (Gruenenthal GmbH, priority 2007, dated 2014) come the findings set out here.

Assay type in all cases: cell-based
The target of experiment [1] is vanilloid receptor 1 (VR1/TRPV1-Receptor) (Homo sapiens, UniProt Q8NER1). Briefly: VR1 functional assay following pH-stimulus.
The target in experiment [2] is T1, vanilloid receptor (VR1) (Homo sapiens, UniProt Q8NER1).
T1 construct: expressed in transfected cells; host or cells: CHO-K1 cells (ECACC), stably transfected
Briefly: Functional FLIPR Ca2+ influx assay in CHO-K1 cells transfected with the VR1 gene, capsaicin stimulus (Pharmacological Method II). The text has this: The agonistic or antagonistic action of the substances to be examined on the vanilloid receptor (VR1) can alternatively be determined by the following assay. According to this assay the Ca^2+ influx through the canal is quantified with the aid of a Ca^2+-sensitive dye (type Fluo-4, Molecular Probes, Europe BV, Leiden, Netherlands) in a fluorescent imaging plate reader (FLIPR, Molecular Devices, Sunnyvale, USA).
Chinese hamster ovary cells (CHO-K1 cells, European Collection of Cell Cultures (ECACC) UK) are stably transfected with the VR1 gene. For carrying out functional investigations, these cells are plated on poly-D-lysine-coated, black 96-well plates with a clear bottom (BD Biosciences, Heidelberg, Germany) in a density of 25,000 cells/well. The cells are incubated overnight at 37° C. and 5% CO2 in a culture medium (Nutrient Mixture ‘am’s F12, 10% by volume of FCS (fetal calf serum), 18 μg/ml of L-proline). On the following day the cells are incubated with Fluo-4 (Fluo-4 2 μM, Pluronic F127 0.01 by volume, Molecular Probes in HBSS (Hank's buffered saline solution), Gibco Invitrogen GmbH, Karlsruhe, Germany) for 30 minutes at 37° C. The plates are then washed 3 times with HBSS buffer and, after another incubation over a period of 15 minutes at room temperature, are used in the FLIPR for Ca^2+ measurement. The Ca^2+-dependent fluorescence is measured prior to and following the addition of the substances being examined (wavelength λex=488 nm, λem=540 nm). Quantification is carried out by measuring the highest fluorescence intensity (PC, fluorescence counts) over time.
The FLIPR protocol consists of 2 substance additions. First of all, the substances to be tested (10 μM) are pipetted onto the cells and the Ca^2+ influx is compared with the control (capsaicin 10 μM) (percentage activation based on the Ca^2+ signal following addition of 10 μM of capsaicin). Following incubation over a period of 5 minutes 100 nM of capsaicin are applied and the influx of Ca^2+ is likewise determined.
Desensitizing agonists and antagonists led to a suppression of the Ca^2+ influx. The percentage inhibition compared with the maximum attainable inhibition using 10 μM of capsaicin is calculated.
Based on the percentage displacement effected by different concentrations of the compounds of the general formula I to be tested, IC50 inhibition concentrations are calculated which cause 50 percent displacement of capsaicin. Conversion using the Cheng Prusoff equation gave Ki values for the test substances (Cheng, Prusoff; Bioch. Pharmacol. 22, 3099-3108, 1973).

Experiment [3] has as its target T1, vanilloid receptor (VR1). The experiment is described as above. The settings on record: read-out: inhibition (in percent), Human Capsaicin.
The target in experiment [4] is T2, vanilloid receptor 1 (VR1/TRPV1) (Rattus norvegicus, UniProt O35433).
T2 construct: The vertebral column is removed from decapitated rats; from tissue; host or cells: primary cells from rat dorsal root ganglia (DRG)
Kind of experiment: Functional FLIPR Ca2+ influx assay on vanilloid receptor 1, capsaicin stimulus (Pharmacological Method I). The conditions noted are these: for Ki: capsaicin stimulus.
Description: The agonistic or antagonistic action of the substances to be investigated on the vanilloid receptor 1 (VR1/TRPV1) of the species rat can be determined using the following assay. According to this assay, the Ca^2+ influx through the receptor channel is quantified with the aid of a Ca^2+-sensitive dye (Type Fluo-4, Molecular Probes Europe BV, Leiden Netherlands) in a fluorescent imaging plate reader (FLIPR, Molecular Devices, Sunnyvale, USA).
The vertebral column is removed from decapitated rats and this is laid directly in a cold, i.e. ice bath-surrounded, HBSS buffer (Hank's buffered saline solution, Gibco Invitrogen GmbH, Karlsruhe, Germany) and 1% by volume of an AA solution (antibiotics/antimycotics solution, PAA, Pasching, Austria) is added. The vertebral column is cut in two longitudinally and the vertebral canal is removed together with fascias. Subsequently, the dorsal root ganglia (DRGs) are removed and in turn stored in cold HBSS buffer to which 1% by volume of an AA solution has been added. The DRGs completely freed from blood residues and spinal nerves are in each case transferred to 500 μL of cold collagenase Type 2 (PAA, Pasching, Austria) and incubated at 37° C. for 35 minutes. […] On completion of incubation, the enzyme solution is carefully pipetted off and 500 μL of complete medium are added to the DRGs in each case. The DRGs are in each case repeatedly suspended, drawn through No. 1, No. 12 and No. 16 needles by means of a syringe and transferred to 50 mL Falcon tubes and these are filled to 15 mL with complete medium. The contents of each Falcon tube are in each case filtered through a 70 μm Falcon filter insert and centrifuged at 1200 rpm and room temperature for 10 minutes. The resulting pellet is in each case taken up in 250 μL of complete medium and the cell count is determined.
The number of cells in the suspension is adjusted to 3×10^5 per mL and in each case 150 μL of this suspension are added to a well of the cell culture plates coated as described above.
The cells are then loaded with 2 μM Fluo-4 and 0.01% by volume of Pluronic F127 (Molecular Probes Europe BV, Leiden Netherlands) in HBSS buffer (Hank's buffered saline solution, Gibco Invitrogen GmbH, Karlsruhe, Germany) at 37° C. for 30 min, washed 3 times with HBSS buffer and, after a further incubation of 15 minutes at room temperature, employed in the FLIPR assay for Ca^2+ measurement. […] Quantification is carried out by measuring the highest fluorescence intensity (FC, fluorescence counts) over time.
Initially, the compounds to be tested (10 μM) are pipetted onto the cells and the Ca^2+ influx is compared with the control (capsaicin 10 μM). Information is gained therefrom in % activation relative to the Ca^2+ signal after addition of 10 μM of capsaicin (CP). After incubation for 5 minutes, 100 nM of capsaicin are applied and the influx of Ca^2+ is likewise determined.
Desensitizing agonists and antagonists lead to suppression of the Ca^2+ influx. The percentage inhibition is calculated in comparison with the maximum inhibition achieved with 10 μM of capsaicin.
Triplicate determinations (n=3) are carried out and these are repeated in at least 3 independent experiments (N=4).

The mark [5] stands for this setting: read-out: inhibition (in percent), Human following pH-stimulus.
Setting [6] is: capsaicin, read-out: inhibition (in percent), Rat Capsaicin.

A word on the IC50: it is the midpoint of a concentration-inhibition curve. Lower therefore signals inhibition by little substance. A word on the Ki: it is a measure of affinity in units of concentration, obtained from inhibition or displacement. Usually inhibition stands for the percentage by which the read-out fell short of the control.

T2 sequence (O35433 whole entry): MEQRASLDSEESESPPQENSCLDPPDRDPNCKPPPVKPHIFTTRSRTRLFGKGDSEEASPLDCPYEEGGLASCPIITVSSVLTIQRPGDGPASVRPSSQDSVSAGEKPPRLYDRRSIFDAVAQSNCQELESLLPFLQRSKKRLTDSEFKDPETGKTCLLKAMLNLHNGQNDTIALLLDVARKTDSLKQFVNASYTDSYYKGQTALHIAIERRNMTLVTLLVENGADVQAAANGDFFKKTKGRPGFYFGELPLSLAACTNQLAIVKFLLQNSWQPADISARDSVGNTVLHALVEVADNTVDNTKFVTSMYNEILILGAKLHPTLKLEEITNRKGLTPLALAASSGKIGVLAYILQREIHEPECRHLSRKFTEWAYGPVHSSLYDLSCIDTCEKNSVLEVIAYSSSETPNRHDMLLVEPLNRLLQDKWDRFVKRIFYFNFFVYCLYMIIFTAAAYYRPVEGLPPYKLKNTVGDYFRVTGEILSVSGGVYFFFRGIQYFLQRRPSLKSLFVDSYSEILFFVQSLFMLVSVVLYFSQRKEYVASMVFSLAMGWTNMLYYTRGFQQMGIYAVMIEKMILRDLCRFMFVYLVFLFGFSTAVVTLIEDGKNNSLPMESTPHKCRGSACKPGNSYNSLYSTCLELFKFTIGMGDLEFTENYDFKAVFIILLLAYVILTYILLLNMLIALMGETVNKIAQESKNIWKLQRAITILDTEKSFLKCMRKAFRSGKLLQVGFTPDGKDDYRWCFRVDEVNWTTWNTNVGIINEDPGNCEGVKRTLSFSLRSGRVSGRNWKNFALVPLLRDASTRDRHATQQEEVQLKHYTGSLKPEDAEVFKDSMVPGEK
Chain of vanilloid receptor 1 (VR1/TRPV1-Receptor) (Q8NER1 whole entry): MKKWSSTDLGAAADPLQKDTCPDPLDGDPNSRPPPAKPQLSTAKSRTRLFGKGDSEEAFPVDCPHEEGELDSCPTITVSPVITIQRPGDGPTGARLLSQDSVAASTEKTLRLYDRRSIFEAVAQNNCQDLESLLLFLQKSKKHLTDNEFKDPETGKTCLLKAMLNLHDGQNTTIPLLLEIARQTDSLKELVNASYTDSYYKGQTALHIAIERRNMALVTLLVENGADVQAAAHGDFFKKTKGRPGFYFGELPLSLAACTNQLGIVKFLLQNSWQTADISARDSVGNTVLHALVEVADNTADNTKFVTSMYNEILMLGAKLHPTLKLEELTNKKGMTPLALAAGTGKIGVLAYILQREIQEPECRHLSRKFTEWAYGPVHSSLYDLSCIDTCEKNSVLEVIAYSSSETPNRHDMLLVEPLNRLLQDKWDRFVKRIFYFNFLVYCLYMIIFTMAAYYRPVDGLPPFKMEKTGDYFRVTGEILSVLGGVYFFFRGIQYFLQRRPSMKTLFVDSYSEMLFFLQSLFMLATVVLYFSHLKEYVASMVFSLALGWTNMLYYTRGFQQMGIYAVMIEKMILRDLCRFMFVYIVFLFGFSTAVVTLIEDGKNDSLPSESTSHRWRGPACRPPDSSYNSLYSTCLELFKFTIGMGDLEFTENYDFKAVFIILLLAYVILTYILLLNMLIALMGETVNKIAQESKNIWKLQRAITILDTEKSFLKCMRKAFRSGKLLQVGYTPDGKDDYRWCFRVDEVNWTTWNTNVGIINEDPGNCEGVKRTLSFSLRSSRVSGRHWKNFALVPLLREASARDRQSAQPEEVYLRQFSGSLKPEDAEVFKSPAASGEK
T1 sequence (Q8NER1 whole entry): as above

Compound `CC1CCN(c2nc(C(F)(F)F)ccc2CNC(=O)C(c2ccc(NS(C)(=O)=O)c(F)c2)C2CCCCC2)CC1` (centres unmarked) [Example 1, 2-Cyclohexyl-2-(3-fluoro-4-(methylsulfonamido)phenyl)-N-((2-(4-methylpiperidin-1-yl)-6-(trifluoromethyl)pyridin-3-yl)methyl)acetamide] yielded a half-inhibitory concentration (IC50) in experiment [1] of 118 nM. On vanilloid receptor (VR1) [2], this compound yielded a Ki of 31.1 nM.
Consider `CS(=O)(=O)Nc1ccc(C(C(=O)NCc2ccc(C(F)(F)F)nc2SC2CCCCC2)C2CCCCC2)cc1F` (centres unmarked) [Example 2, 2-Cyclohexyl-N-((2-(cyclohexylthio)-6-(trifluoromethyl)pyridin-3-yl)methyl)-2-(3-fluoro-4-(methylsulfonamido)phenyl)acetamide], for which the IC50 in experiment [1] turned out to be 1390 nM. Moreover, at vanilloid receptor (VR1) [3], the inhibition at 1 µM is 2% and the inhibition at 5 µM came out at 31%. The compound further gave an inhibition constant (Ki) in experiment [4] of 98.7 nM.
As for `CC1CCN(c2nc(C(F)(F)F)ccc2CNC(=O)C(c2ccccc2)c2ccc(NS(C)(=O)=O)c(F)c2)CC1` (centres unmarked) [Example 3, 2-(3-Fluoro-4-(methylsulfonamido)phenyl)-N-((2-(4-methylpiperidin-1-yl)-6-(trifluoromethyl)pyridin-3-yl)methyl)-2-phenylacetamide], it took 79 nM to reach half-maximal inhibition in experiment [1] (IC50). The same compound showed an inhibitory constant (Ki) on vanilloid receptor (VR1) [2] of 1.3 nM.
Turning to `CS(=O)(=O)Nc1ccc(C(C(=O)NCc2ccc(C(F)(F)F)nc2SC2CCCCC2)c2ccccc2)cc1F` (centres unmarked) [Example 4, N-((2-(Cyclohexylthio)-6-(trifluoromethyl)pyridin-3-yl)methyl)-2-(3-fluoro-4-(methylsulfonamido)phenyl)-2-phenylacetamide], the IC50 in experiment [1] worked out at 1590 nM. On vanilloid receptor (VR1) [2], this compound gave an inhibition constant Ki of 62.5 nM.
`CC1CCN(c2nc(C(F)(F)F)ccc2CNC(=O)C(C)(C)c2ccc(NS(C)(=O)=O)c(F)c2)CC1` [Example 5, 2-(3-Fluoro-4-(methylsulfonamido)phenyl)-2-methyl-N-((2-(4-methylpiperidin-1-yl)-6-(trifluoromethyl)pyridin-3-yl)methyl)propanamide] gave a 50% inhibitory concentration (IC50) in experiment [1] of 886 nM. The Ki on vanilloid receptor (VR1) [2] is 49 nM; in experiment [4], 45.5 nM.
For `CC(C)(C(=O)NCc1ccc(C(F)(F)F)nc1SC1CCCCC1)c1ccc(NS(C)(=O)=O)c(F)c1` [Example 6, N-((2-(Cyclohexylthio)-6-(trifluoromethyl)pyridin-3-yl)methyl)-2-(3-fluoro-4-(methylsulfonamido)phenyl)-2-methylpropanamide], the inhibition at 0.1 µM in experiment [1] (@ 0.1 μM, read-out: inhibition (in percent), Human following pH-stimulus) was found to be 4%. In experiment [1] (setting [5]), the inhibition at 1 µM worked out at 20%, the inhibition at 5 µM stood at 42% and the inhibition at 10 µM was 54%. Besides, the Ki at vanilloid receptor (VR1) [2] stood at 65.7 nM. This compound also returned an inhibition constant (Ki) in experiment [4] of 34.9 nM.
In the case of `CCC(C)(C(=O)NCc1ccc(C(F)(F)F)nc1N1CCC(C)CC1)c1ccc(NS(C)(=O)=O)c(F)c1` (centres unmarked) [Example 7, 2-(3-Fluoro-4-(methylsulfonamido)phenyl)-2-methyl-N-((2-(4-methylpiperidin-1-yl)-6-(trifluoromethyl)pyridin-3-yl)methyl)butanamide], in experiment [1] (setting [5]), the inhibition at 1 µM was 0%, the inhibition at 5 µM came to 15% and the inhibition at 10 µM was determined as 18%. At vanilloid receptor (VR1) [2], this compound returned a Ki of 124 nM. This compound also had a Ki in experiment [4] of 37.8 nM.
Regarding `CC1CCN(c2nc(C(F)(F)F)ccc2CNC(=O)C2(c3ccc(NS(C)(=O)=O)c(F)c3)CCCC2)CC1` [Example 13, 1-(3-Fluoro-4-(methylsulfonamido)phenyl)-N-((2-(4-methylpiperidin-1-yl)-6-(trifluoromethyl)pyridin-3-yl)methyl)cyclopentanecarboxamide], on vanilloid receptor (VR1) [3], the inhibition at 1 µM is 0% and the inhibition at 5 µM was 25%. Moreover, the inhibition at 0.1 µM in experiment [4] (@ 0.1 μM, capsaicin, read-out: inhibition (in percent), Rat Capsaicin) stood at 0%. Also, in experiment [4] (setting [6]), the inhibition at 1 µM worked out at 27% and the inhibition at 5 µM was determined as 43%.
Take `CS(=O)(=O)Nc1ccc(C2(C(=O)NCc3ccc(C(F)(F)F)nc3SC3CCCCC3)CCCCC2)cc1F` [Example 16, N-((2-(Cyclohexylthio)-6-(trifluoromethyl)pyridin-3-yl)methyl)-1-(3-fluoro-4-(methylsulfonamido)phenyl)cyclohexanecarboxamide]: in experiment [4] (setting [6]), the inhibition at 1 µM is 15% and the inhibition at 5 µM was 69%.
With `CC1CCN(c2nc(C(F)(F)F)ccc2CNC(=O)C(c2ccc(NS(C)(=O)=O)c(F)c2)C2CCCC2)CC1` (centres unmarked) [Example 21, 2-Cyclopentyl-2-(3-fluoro-4-(methylsulfonamido)phenyl)-N-((2-(4-methylpiperidin-1-yl)-6-(trifluoromethyl)pyridin-3-yl)methyl)acetamide], in experiment [1], the IC50 was determined as 949 nM. Moreover, the inhibitory constant (Ki) at vanilloid receptor (VR1) [2] turned out to be 88.7 nM; in experiment [4] it was 20.6 nM.
Regarding `CS(=O)(=O)Nc1ccc(C(C(=O)NCc2ccc(C(F)(F)F)nc2SC2CCCCC2)C2CCCC2)cc1F` (centres unmarked) [Example 22, N-((2-(Cyclohexylthio)-6-(trifluoromethyl)pyridin-3-yl)methyl)-2-cyclopentyl-2-(3-fluoro-4-(methylsulfonamido)phenyl)acetamide], in experiment [1] (setting [5]), the inhibition at 1 µM was 0%, the inhibition at 5 µM is 27% and the inhibition at 10 µM was 46%. Further, the Ki on vanilloid receptor (VR1) [2] stood at 103 nM. Besides, the Ki in experiment [4] turned out to be 31.3 nM.
`CC1CCN(c2nc(C(F)(F)F)ccc2CNC(=O)C(c2cccc(F)c2)c2ccc(NS(C)(=O)=O)c(F)c2)CC1` (centres unmarked) [Example 34, 2-(3-Fluoro-4-(methylsulfonamido)phenyl)-2-(3-fluorophenyl)-N-((2-(4-methylpiperidin-1-yl)-6-(trifluoromethyl)pyridin-3-yl)methyl)acetamide]: in experiment [1], the 50% inhibitory concentration (IC50) stood at 21.6 nM. Besides, the inhibition constant (Ki) on vanilloid receptor (VR1) [2] was 2.4 nM.
In experiment [1], `CC1CCN(c2nc(C(F)(F)F)ccc2CNC(=O)C(c2ccc(F)cc2)c2ccc(NS(C)(=O)=O)c(F)c2)CC1` (centres unmarked) [Example 35, 2-(3-Fluoro-4-(methylsulfonamido)phenyl)-2-(4-fluorophenyl)-N-((2-(4-methylpiperidin-1-yl)-6-(trifluoromethyl)pyridin-3-yl)methyl)acetamide] gave an IC50 of 246 nM. The inhibition constant Ki was found to be 3.4 nM on vanilloid receptor (VR1) [2] and 13.6 nM in experiment [4].
With `Cc1ccccc1C(C(=O)NCc1ccc(C(F)(F)F)nc1N1CCC(C)CC1)c1ccc(NS(C)(=O)=O)c(F)c1` (centres unmarked) [Example 40, 2-(3-Fluoro-4-(methylsulfonamido)phenyl)-N-((2-(4-methylpiperidin-1-yl)-6-(trifluoromethyl)pyridin-3-yl)methyl)-2-o-tolylacetamide], inhibition in experiment [1] was half-maximal at 3140 nM (IC50). In addition, the values for the inhibition constant (Ki) (on vanilloid receptor (VR1) [2]; in experiment [4]) were 42.9 nM and 109 nM, respectively.
The corresponding values for `Cc1cccc(C(C(=O)NCc2ccc(C(F)(F)F)nc2N2CCC(C)CC2)c2ccc(NS(C)(=O)=O)c(F)c2)c1` (centres unmarked) [Example 41, 2-(3-Fluoro-4-(methylsulfonamido)phenyl)-N-((2-(4-methylpiperidin-1-yl)-6-(trifluoromethyl)pyridin-3-yl)methyl)-2-m-tolylacetamide] are 86.7 nM, 0.1 nM and 1.8 nM.
As for `Cc1ccc(C(C(=O)NCc2ccc(C(F)(F)F)nc2N2CCC(C)CC2)c2ccc(NS(C)(=O)=O)c(F)c2)cc1` (centres unmarked) [Example 42, 2-(3-Fluoro-4-(methylsulfonamido)phenyl)-N-((2-(4-methylpiperidin-1-yl)-6-(trifluoromethyl)pyridin-3-yl)methyl)-2-p-tolylacetamide], in experiment [1], the IC50 worked out at 31.6 nM. Moreover, the Ki at vanilloid receptor (VR1) [2] worked out at 1.1 nM; in experiment [4], 6.3 nM.
For the compound `Cc1ccc(CC(C(=O)NCc2ccc(C(F)(F)F)nc2N2CCC(C)CC2)c2ccc(NS(C)(=O)=O)c(F)c2)cc1` (centres unmarked) [Example 77, 2-(3-Fluoro-4-(methylsulfonamido)phenyl)-N-((2-(4-methylpiperidin-1-yl)-6-(trifluoromethyl)pyridin-3-yl)methyl)-3-p-tolylpropanamide], on vanilloid receptor (VR1) [3], the inhibition at 1 µM is 0% and the inhibition at 5 µM stood at 17%. Further, in experiment [4], the affinity corresponds to a Ki of 158 nM.
